Among the test systems are SNB-19 CNS; A549 NSCLC; HCT-116 colon; KM20L2 colon; HL-60(TB) leukemia; DMS 273 small cell lung; M19-MEL melanoma; RXF-631 renal; PC-3 prostate; HS 578T breast; T-47D breast.
Test in all cases: NCI anticancer screen, dose series, 48 h

The structures appear in SMILES notation. Several values for one entry are separate records, joined by “and”; a condition that tells them apart may be missing. Equal values may be shown once.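 Dose response: 5 concentrations. Exposure: 48 h. Format: 96-well plates. Endpoint: linear interpolation; highest concentration if not reached. GI50 marks 50% less growth. TGI denotes the concentration required for complete inhibition of growth.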 Where a SMILES comes first, the peptide text is derived from it. A value given as a limit tells only on which side of the number the result lay.

From PubChem BioAssay (NCI) come the findings set out here.

Turning to `C=CC1(NS(=O)(=O)c2ccc(C)cc2)CCC(C(C)(C)C)CC1` (configuration not stated), the TGI in the experiment with SNB-19 CNS, with A549 NSCLC, in the experiment with HCT-116 colon, in the experiment on KM20L2 colon, with HL-60(TB) leukemia and in the experiment with DMS 273 small cell lung was over 100 µM in each case. Also, in the experiment on M19-MEL melanoma, the TGI was over 100 µM.
In the case of `CC1=C(Cl)C=CP(=O)(OC(C)C)C1` (configuration not stated), the TGI with A549 NSCLC, in the experiment with HCT-116 colon, in the experiment with KM20L2 colon, in the experiment on HL-60(TB) leukemia, in the experiment with RXF-631 renal and with M19-MEL melanoma was over 100 µM throughout.
Take `COc1ccc(-c2cc(-c3cc(Cl)cc(Br)c3O)[nH]c(=O)n2)cc1`: the TGI in the experiment with SNB-19 CNS amounted to 57.2 µM; with A549 NSCLC, 33.7 µM; in the experiment on HCT-116 colon, 24.5 µM; with KM20L2 colon it was 38.6 µM; in the experiment with HL-60(TB) leukemia it was 48.5 µM; in the experiment with DMS 273 small cell lung it was 31.1 µM. This compound also registered a TGI with M19-MEL melanoma of 46.4 µM.
Consider `Cc1cccc(N2C(=O)C(=O)C(c3nc4ccccc4s3)/C(=N/NC(=S)NN)C2=O)c1C` (configuration not stated), for which the TGI in the experiment with SNB-19 CNS, in the experiment with HCT-116 colon, in the experiment with KM20L2 colon, in the experiment with DMS 273 small cell lung, in the experiment with RXF-631 renal and in the experiment with M19-MEL melanoma was over 100 µM in each case.
On to `C#CC1(O)c2ccccc2C(=O)c2ccccc21`, for which the TGI in the experiment with SNB-19 CNS, in the experiment with A549 NSCLC, with HCT-116 colon, with KM20L2 colon, in the experiment on HL-60(TB) leukemia and with DMS 273 small cell lung was over 100 µM in each case. Also, in the experiment on M19-MEL melanoma, the TGI is over 100 µM.
`O=S1(=O)CS(=O)(=O)OCCO1`: the TGI in the experiment on PC-3 prostate came to 665 µM; with SNB-19 CNS, 324 µM; in the experiment on HS 578T breast, 176 µM; in the experiment on A549 NSCLC it was 186 µM; with HCT-116 colon, 85.3 µM; in the experiment with KM20L2 colon it was 331 µM. Moreover, the TGI is 93.1 µM and 61.8 µM in the experiment with HL-60(TB) leukemia; 215 µM in the experiment on DMS 273 small cell lung; 557 µM in the experiment on T-47D breast; 126 µM with M19-MEL melanoma. The GI50 in the experiment with A549 NSCLC was over 82.6 µM; in the experiment with HCT-116 colon it was over 74.6 µM; in the experiment on HL-60(TB) leukemia, 23.9 µM; in the experiment with T-47D breast, 87.6 µM.
In the case of `CCCCN[C@H]1C2C3CC4C5CC(C42)C1(C)C53` (some centres not stated), the TGI in the experiment with SNB-19 CNS, in the experiment with A549 NSCLC, with HCT-116 colon, with KM20L2 colon, with HL-60(TB) leukemia and in the experiment with DMS 273 small cell lung was over 100 µM each time. Also, the TGI in the experiment on M19-MEL melanoma is over 100 µM.
Consider `Cc1ccc(NC(=S)SCCC(=O)O)cc1`, for which the TGI with SNB-19 CNS, in the experiment with A549 NSCLC, in the experiment on HCT-116 colon, in the experiment with KM20L2 colon, in the experiment on HL-60(TB) leukemia and in the experiment with DMS 273 small cell lung was over 100 µM throughout. The same compound registered a TGI in the experiment with RXF-631 renal of over 100 µM.
As to `O=S1(=O)CCCS(=O)(=O)C(c2ccccc2)=C1c1ccccc1`, the TGI was over 100 µM with A549 NSCLC; over 100 µM in the experiment on HCT-116 colon; 72.1 µM in the experiment on KM20L2 colon; 44.6 µM with HL-60(TB) leukemia; over 100 µM with RXF-631 renal; over 100 µM in the experiment on M19-MEL melanoma.
With `CCC(C)C1NC(=O)C2CCCN2C(=O)CNC(=O)C(C)NC(=O)C(Cc2ccccc2)NC(=O)C(C(C)C)NC1=O` (configuration not stated) (cyclo(GPIVFA); configuration not given here), the TGI in the experiment with SNB-19 CNS, in the experiment with A549 NSCLC, in the experiment on HCT-116 colon, in the experiment with KM20L2 colon, with RXF-631 renal and in the experiment on M19-MEL melanoma was over 100 µM each time.
On to `CCOC(=O)[C@H]1Nc2ccc([N+](=O)[O-])cc2C2c3ccccc3CC21` (some centres not stated), for which the TGI in the experiment with SNB-19 CNS is over 100 µM; in the experiment on A549 NSCLC, 91.2 µM; in the experiment on HCT-116 colon, 37.9 µM; with KM20L2 colon, 54 µM; in the experiment with DMS 273 small cell lung it was 34.9 µM; with M19-MEL melanoma, 70.7 µM.
Take `O=[N+]([O-])c1cc(Cl)ccc1OCc1ccccc1`: the TGI in the experiment on A549 NSCLC, in the experiment with HCT-116 colon, with HL-60(TB) leukemia, in the experiment on DMS 273 small cell lung, with RXF-631 renal and in the experiment on M19-MEL melanoma was over 100 µM each time.
With `Cc1ccc(-c2cc(=O)c3cc(C)c(C)c(C(=O)O)c3o2)cc1N`, the TGI in the experiment with SNB-19 CNS, in the experiment on A549 NSCLC, in the experiment on HCT-116 colon, in the experiment on KM20L2 colon, in the experiment on RXF-631 renal and in the experiment on M19-MEL melanoma was over 100 µM each time.
In the case of `COc1ccc(/C=c2/sc3n(c2=O)NC2(CCC(C)CC2)NN=3)cc1` (configuration not stated), the TGI in the experiment on SNB-19 CNS, in the experiment with A549 NSCLC, in the experiment with HCT-116 colon, with KM20L2 colon, with DMS 273 small cell lung and in the experiment with M19-MEL melanoma was over 100 µM in each case.
`CC1(C)C(=O)/C=C\C(=O)C(C)(C)C(=O)/C=C\C(=O)C(C)(C)C(=O)/C=C\C(=O)C(C)(C)C(=O)/C=C\C1=O`: the TGI in the experiment with PC-3 prostate was over 100 µM; with SNB-19 CNS, over 71.1 µM; in the experiment on HS 578T breast, over 100 µM; in the experiment with A549 NSCLC it was over 100 µM; with HCT-116 colon, 30.8 µM; in the experiment with KM20L2 colon, 83.2 µM. The TGI in the experiment on HL-60(TB) leukemia was 10.4 µM; in the experiment with DMS 273 small cell lung, 37.4 µM; in the experiment on T-47D breast, over 100 µM; with M19-MEL melanoma, 40.6 µM.
With `COc1ccc(/C(Cl)=C(\c2ccc(OCCN(C)C)cc2)c2ccc(OC(=O)C(C)(C)C)cc2)cc1`, the TGI with SNB-19 CNS is 29.5 µM; in the experiment on A549 NSCLC, 28.3 µM; in the experiment with HCT-116 colon, 24.4 µM; in the experiment with KM20L2 colon, 12.4 µM; with HL-60(TB) leukemia, 21.1 µM; with DMS 273 small cell lung, 17.5 µM. Also, the TGI with M19-MEL melanoma was found to be 26.6 µM.
As for `COC(=O)C(CBr)CBr`, the TGI with PC-3 prostate was found to be 23 µM; in the experiment with SNB-19 CNS it was 13.3 µM; in the experiment on HS 578T breast it was 19.4 µM; in the experiment on A549 NSCLC, 36.3 µM; in the experiment with HCT-116 colon, 11.5 µM; in the experiment on HL-60(TB) leukemia it was 1.41 µM. In addition, the TGI in the experiment with DMS 273 small cell lung was 29.3 µM; in the experiment on T-47D breast, 7.22 µM; in the experiment on RXF-631 renal, 8.96 µM; with M19-MEL melanoma it was 17.2 µM.
Regarding `CNS(=O)(=O)NN(C)S(=O)(=O)c1ccc2ccccc2c1`, the TGI in the experiment on A549 NSCLC, with HCT-116 colon, in the experiment on KM20L2 colon, in the experiment on HL-60(TB) leukemia, in the experiment on DMS 273 small cell lung and with RXF-631 renal was over 100 µM throughout. Further, the TGI with M19-MEL melanoma was over 100 µM.
As for `O=C(Nc1cc(Cl)cc(Cl)c1)/C(Cc1nc2ccccc2[nH]c1=O)=N/NC(=O)c1ccncc1`, the TGI with SNB-19 CNS, in the experiment with A549 NSCLC, with HCT-116 colon, with KM20L2 colon, in the experiment with HL-60(TB) leukemia and in the experiment on RXF-631 renal was over 100 µM in each case. This compound yielded a TGI in the experiment on M19-MEL melanoma of over 100 µM.
Regarding `CC1C[C@]2(C[C@@H](C)C(=O)O2)O[C@@H]2CC3(C)[C@@H]4CCC5C(C)(C)OC(=O)C[C@H]6OO[C@]4(CC[C@]3(C)C12)CC56O` (some centres not stated), the TGI in the experiment on SNB-19 CNS, in the experiment on A549 NSCLC, in the experiment with HL-60(TB) leukemia and in the experiment with DMS 273 small cell lung was over 100 µM throughout.
For the compound `CC1(C)C=N[N+]2(C)C3C=CC(CC3)C12` (configuration not stated), the TGI with SNB-19 CNS, in the experiment on A549 NSCLC, in the experiment with HCT-116 colon, with KM20L2 colon, in the experiment on HL-60(TB) leukemia and in the experiment with RXF-631 renal was over 100 µM each time. Moreover, in the experiment on M19-MEL melanoma, the TGI was over 100 µM.
Turning to `CC(=O)[CH-]C(=O)c1ccccc1.CC(=O)[CH-]C(=O)c1ccccc1.Cl.[O-]c1ccccn1.[O-]c1ccccn1.[Ti+4]`, the GI50 in the experiment on SNB-19 CNS, in the experiment on A549 NSCLC, in the experiment with HCT-116 colon, in the experiment on KM20L2 colon, in the experiment with HL-60(TB) leukemia and with M19-MEL melanoma was over 100 µM each time. Besides, the TGI in the experiment with SNB-19 CNS, with A549 NSCLC, with HCT-116 colon, with KM20L2 colon, with HL-60(TB) leukemia and in the experiment with M19-MEL melanoma was over 100 µM each time.
In the case of `COc1ccc2c(c1)[n+]([O-])c(-c1ccc(C)cc1)c(N)[n+]2[O-]`, the TGI in the experiment on SNB-19 CNS, with A549 NSCLC, with HCT-116 colon, in the experiment with KM20L2 colon, in the experiment with HL-60(TB) leukemia and with DMS 273 small cell lung was over 100 µM in each case. Also, the TGI with M19-MEL melanoma is over 100 µM.
For `CC12CO[C@@](C)(CC(S(=O)(=O)c3ccccc3)C1)O2` (some centres not stated), the TGI in the experiment on SNB-19 CNS, in the experiment on A549 NSCLC, with HCT-116 colon, in the experiment on KM20L2 colon, in the experiment with HL-60(TB) leukemia and in the experiment on DMS 273 small cell lung was over 100 µM throughout. The same compound showed a TGI with M19-MEL melanoma of over 100 µM.
Consider `CCN(CC)C(=O)N1CCN(C=S)CC1`, for which the TGI with SNB-19 CNS, in the experiment on A549 NSCLC, with HCT-116 colon, in the experiment on KM20L2 colon, in the experiment on HL-60(TB) leukemia and in the experiment with DMS 273 small cell lung was over 100 µM each time. Moreover, the TGI with M19-MEL melanoma was over 100 µM.
